Article PMC10593844, “Structure-function analyses reveal key molecular determinants of HIV-1 CRF01_AE resistance to the entry inhibitor temsavir” (Nature Communications, 2023)
Where “and” joins values, the source holds several entries; their conditions need not be identical. Identical values can stand only once. Like-named read-outs stand apart in the source and are kept apart here.

Experiments:
[1] = test system: CRF01_AE 92TH023 Env LM on HEK293T cells; format: binding; conditions: 92TH023 LM; temsavir 10 µM; listed as TMR
[2] = test system: HIV-1 pseudovirus bearing CRF01_AE 92TH023 Env LMHS; experiment: organism not typed; format: cell-based; conditions: for Relative infectivity (%): 92TH023 LMHS
[3] = test system: HIV-1 pseudovirus bearing EnvJR-FL WT; experiment: organism not typed; format: cell-based; conditions: for Relative infectivity (%): JRFL WT
[4] = test system: HIV-1JR-FL Env S375H on HEK293T cells; format: binding; conditions: JRFL S375H; temsavir 10 µM; listed as TMR
[5] = test system: CRF01_AE 92TH023 Env H375T on HEK293T cells; format: binding; conditions: 92TH023 H375T; temsavir 10 µM; listed as TMR
[6] = test system: CRF01_AE 92TH023 Env LMHT on HEK293T cells; format: binding; conditions: 92TH023 LMHT; temsavir 10 µM; listed as TMR
[7] = test system: HIV-1JR-FL Env WT on HEK293T cells; format: binding; conditions: JRFL WT; temsavir 10 µM; listed as TMR
[8] = test system: HIV-1 pseudovirus bearing EnvJR-FL S375F; experiment: organism not typed; format: cell-based
CRF01_AE strains = test system: CRF01_AE strains; parameters: method as in PMID 30604750; conditions: CRF01_AE strains; cited from earlier work
[9] = test system: HIV-1 pseudovirus bearing EnvJR-FL S375T; experiment: organism not typed; format: cell-based; conditions: for Relative infectivity (%): JRFL S375T
[10] = test system: HIV-1 pseudovirus bearing clade B YU2 Env WT; experiment: organism not typed; format: cell-based; conditions: for Relative infectivity (%): YU2 WT
[11] = test system: HIV-1 pseudovirus bearing CRF01_AE 92TH023 Env LM; experiment: organism not typed; format: cell-based; conditions: for Relative infectivity (%): 92TH023 LM
[12] = molecular target: T1, clade B YU2 Env S375T on HEK293T cells (Human immunodeficiency virus type 1 group M subtype B, UniProt P35961, S370T); format: binding; conditions: temsavir 10 µM, listed as TMR
T1 construct: expressed in transfected cells; host or cells: HEK293T (pSVIIIenv co-transfected with a Tat expressor)

[13] = test system: HIV-1JR-FL Env S375T on HEK293T cells; format: binding; conditions: JRFL S375T; temsavir 10 µM; listed as TMR
[14] = test system: HIV-1 pseudovirus bearing clade B YU2 Env D474N/M475I/R476K; format: cell-based
[15] = test system: HIV-1 pseudovirus bearing EnvJR-FL S375Y; experiment: organism not typed; format: cell-based; conditions: for Relative infectivity (%): JRFL S375Y
[16] = test system: HIV-1 pseudovirus bearing clade B YU2 Env LM; experiment: organism not typed; format: cell-based; conditions: for Relative infectivity (%): YU2 LM
[17] = test system: HIV-1JR-FL Env S375W on HEK293T cells; format: binding; conditions: JRFL S375W; temsavir 10 µM; listed as TMR
[18] = test system: HIV-1 pseudovirus bearing CRF01_AE CM244 Env WT; experiment: organism not typed; format: cell-based; conditions: for Relative infectivity (%): CM244 WT
[19] = test system: clade B YU2 Env LM on HEK293T cells; format: binding; conditions: temsavir 10 µM, listed as TMR
[20] = test system: HIV-1 pseudovirus bearing clade B YU2 Env Y61H; format: cell-based
[21] = test system: CRF01_AE CM244 Env LM+HS on HEK293T cells; format: binding; conditions: temsavir 10 µM, listed as TMR
[22] = test system: panel of 208 HIV-1 Envs from different clades; conditions: cited from earlier work; for IC50: read-out: Neutralization IC50

## COc1cnc(-n2cnc(C)n2)c2[nH]cc(C(=O)C(=O)N3CCN(C(=O)c4ccccc4)CC3)c12 [Temsavir, temsavir]
[1]
  sCD4 binding (+TMR) - Fold over DMSO: 1.042 and 0.933 and 0.9789
[2]; Temsavir 1 nM
  Relative infectivity (%): 49.3528% and 37.816% and 43.3804%
[2]; Temsavir 5 nM
  Relative infectivity (%): 29.4428% and 33.6115% and 29.1035%
[2]; Temsavir 10 nM
  Relative infectivity (%): 21.0612% and 17.7261% and 12.1457%
[2]; Temsavir 50 nM
  Relative infectivity (%): 7.315% and 6.366% and 6.4059%
[2]; Cf2Th-CD4/CCR5
  IC50: 0.00089 µM
[3]; Cf2Th-CD4/CCR5
  IC50: 0.00036 µM
[3]; Temsavir 0.1 nM
  Relative infectivity (%): 88.4413% and 81.9041% and 67.8312%
[3]; Temsavir 5 nM
  Relative infectivity (%): 0.09027% and 0.782% and 0.1663%
[3]; Temsavir 25 nM
  Relative infectivity (%): 0.07266% and 0.1285% and 0.09925% and 0.3863%
[3]; Temsavir 100 nM
  Relative infectivity (%): 0.1307% and 0.3086% and 0.1992% and 0.5674%
[4]
  sCD4 binding (+TMR) - Fold over DMSO: 1.158 and 1.01 and 1.118
[5]
  sCD4 binding (+TMR) - Fold over DMSO: 0.7474 and 0.9648 and 0.9745
[6]
  sCD4 binding (+TMR) - Fold over DMSO: 0.7044 and 0.6853 and 0.7442
[7]
  sCD4 binding (+TMR) - Fold over DMSO: 0.09994 and 0.08955 and 0.1163
[8]; Cf2Th-CD4/CCR5
  IC50: > 0.1 µM
[8]; JRFL S375F, Temsavir 0.1 nM
  Relative infectivity (%): 97.0588% and 121.506% and 78.411%
CRF01_AE strains
  IC50: > 5.8 µM
[9]; Cf2Th-CD4/CCR5
  IC50: 0.00043 µM
[9]; Temsavir 0.1 nM
  Relative infectivity (%): 69.2755% and 98.112% and 68.2496%
[9]; Temsavir 5 nM
  Relative infectivity (%): 1.701% and 2.403% and 0.1043%
[9]; Temsavir 25 nM
  Relative infectivity (%): 0.2129% and 0.1167% and 0.02715% and 9.3062%
[9]; Temsavir 100 nM
  Relative infectivity (%): 0.02755% and 0.0119% and 0.01656% and 2.113%
[10]; Cf2Th-CD4/CCR5
  IC50: 0.00068 µM
[10]; Temsavir 1 nM, Fig 2f
  Relative infectivity (%): 27.4498% and 23.3742% and 28.1647%
[10]; Temsavir 2 nM, Fig S1
  Relative infectivity (%): 66.79% and 41.21% and 35.57%
[10]; Temsavir 5 nM, Fig 2f
  Relative infectivity (%): 1.267% and 2.642% and 1.583%
[10]; Temsavir 5 nM, Fig S1
  Relative infectivity (%): 6.29% and 2.61% and 2.85%
[10]; Temsavir 10 nM, Fig 2f
  Relative infectivity (%): 0.2419% and 0.2962% and 0.3923%
[10]; Temsavir 10 nM, Fig S1
  Relative infectivity (%): 2.59% and 2.79% and 2.69%
[10]; Temsavir 50 nM, Fig 2f
  Relative infectivity (%): 0.2461% and 0.2675% and 0.3334%
[10]; Temsavir 50 nM, Fig S1
  Relative infectivity (%): 2.66% and 2.72% and 2.93%
[10]; Temsavir 100 nM, Fig 2f
  Relative infectivity (%): 0.2542% and 0.2474% and 0.3435%
[10]; Temsavir 100 nM, Fig S1
  Relative infectivity (%): 2.55% and 3.03% and 2.93%
[11]; Temsavir 1 nM
  Relative infectivity (%): 82.8885% and 105.829% and 81.5038%
[11]; Temsavir 5 nM
  Relative infectivity (%): 63.4532% and 71.1451% and 85.9246%
[11]; Temsavir 10 nM
  Relative infectivity (%): 66.9458% and 79.651% and 87.1271%
[11]; Temsavir 50 nM
  Relative infectivity (%): 76.0092% and 99.9867% and 85.6288%
[11]; Cf2Th-CD4/CCR5
  IC50: > 0.05 µM
[12]
  sCD4 binding (+TMR) - Fold over DMSO: 0.6011 and 0.7082 and 0.7739
[13]
  sCD4 binding (+TMR) - Fold over DMSO: 0.1797 and 0.1688 and 0.2064
[14]; Temsavir 5 nM
  Relative infectivity (%): 61.12% and 58.84% and 77.63%
[14]; Temsavir 100 nM
  Relative infectivity (%): 18.08% and 29.17% and 19.26%
[15]; Cf2Th-CD4/CCR5
  IC50: > 0.1 µM
[15]; Temsavir 0.1 nM
  Relative infectivity (%): 95.0549% and 100.21% and 92.5783%
[15]; Temsavir 0.5 nM
  Relative infectivity (%): 93.6966% and 92.3523% and 97.9897%
[15]; Temsavir 1 nM
  Relative infectivity (%): 103.494% and 95.9187% and 99.1671%
[15]; Temsavir 5 nM
  Relative infectivity (%): 82.1418% and 84.655% and 82.6307%
[16]; Cf2Th-CD4/CCR5
  IC50: 0.00917 µM
[16]; Temsavir 1 nM, Fig 2f
  Relative infectivity (%): 76.4591% and 76.4018% and 119.182%
[16]; Temsavir 2 nM, Fig S1
  Relative infectivity (%): 74.57% and 102.72% and 96.57%
[16]; Temsavir 5 nM, Fig 2f
  Relative infectivity (%): 65.3412% and 84.0034% and 74.4376%
[16]; Temsavir 10 nM, Fig 2f
  Relative infectivity (%): 41.1017% and 43.3512% and 50.8185%
[16]; Temsavir 10 nM, Fig S1
  Relative infectivity (%): 72.47% and 80.59% and 43.3%
[16]; Temsavir 50 nM, Fig 2f
  Relative infectivity (%): 13.0704% and 12.6708% and 13.2107%
[16]; Temsavir 50 nM, Fig S1
  Relative infectivity (%): 31.31% and 45.33% and 30.59%
[16]; Temsavir 100 nM, Fig 2f
  Relative infectivity (%): 5.153% and 3.308% and 7.353%
[16]; Temsavir 100 nM, Fig S1
  Relative infectivity (%): 8.15% and 12.22% and 6.99%
[17]
  sCD4 binding (+TMR) - Fold over DMSO: 1.038 and 0.9906 and 0.8801
[18]; Temsavir 1 nM
  Relative infectivity (%): 91.0915% and 114.42% and 104.549%
[18]; Temsavir 5 nM
  Relative infectivity (%): 80.9718% and 103.03% and 93.7921%
[18]; Temsavir 10 nM
  Relative infectivity (%): 79.7783% and 110.299% and 108.245%
[18]; Temsavir 50 nM
  Relative infectivity (%): 78.0773% and 106.103% and 90.5088%
[18]; Cf2Th-CD4/CCR5
  IC50: > 0.05 µM
[19]
  sCD4 binding (+TMR) - Fold over DMSO: 0.8112 and 0.8641 and 1.018
[20]; Temsavir 5 nM
  Relative infectivity (%): 2.81% and 1.74% and 3.98%
[20]; Temsavir 10 nM
  Relative infectivity (%): 1.05% and 1.23% and 1.34%
[20]; Temsavir 50 nM
  Relative infectivity (%): 1.04% and 1.28% and 3.8%
[20]; Temsavir 100 nM
  Relative infectivity (%): 0.97% and 2.23% and 1.32%
[21]
  sCD4 binding (+TMR) - Fold over DMSO: 0.6661 and 0.4581 and 0.6625
[22]; Fig 2a, Env strains with Y61, ref Pancera et al.
  IC50: 0.0004 µM
[22]; individual strains with H375
  IC50: > 20 µM and 18.1 µM and 4.04 µM and 8.52 µM and 12.7 µM and 4.77 µM and 2.81 µM and 13 µM and 4.13 µM and 5.13 µM
[22]; individual strains with S375
  IC50: 0.012 µM
[22]; individual strains, CRF01_AE
  IC50: > 20 µM and 18.1 µM and 4.04 µM and 8.52 µM and 12.7 µM and 4.77 µM and 2.81 µM and 13 µM and 4.13 µM and 5.13 µM
[22]; whole panel, different clades
  active against % of a panel of 208 HIV-1 Envs: 91%
